In the CheMixHub viscosity set:
± gives the uncertainty stated by the source.

Assay: xn = mol fraction of the nth substance listed

COCCOCCOC + CCCO
viscosity [mPa·s]
Details	298.15 K	308.15 K	318.15 K
101 kPa, x1 = 0.0121	1.856 ± 0.056	1.451 ± 0.045	–
101 kPa, x1 = 0.0768	1.559 ± 0.048	1.243 ± 0.039	–
101 kPa, x1 = 0.1011	1.451 ± 0.019	1.173 ± 0.015	0.956 ± 0.013
101 kPa, x1 = 0.1288	1.399 ± 0.043	1.144 ± 0.036	–
101 kPa, x1 = 0.1895	1.272 ± 0.04	1.052 ± 0.034	–
101 kPa, x1 = 0.1997	1.243 ± 0.016	1.021 ± 0.013	0.847 ± 0.011
101 kPa, x1 = 0.2359	1.213 ± 0.038	1.004 ± 0.032	–
101 kPa, x1 = 0.2801	1.183 ± 0.037	0.971 ± 0.031	–
101 kPa, x1 = 0.3029	1.115 ± 0.014	0.927 ± 0.012	0.779 ± 0.011
101 kPa, x1 = 0.3162	1.133 ± 0.036	0.951 ± 0.031	–
101 kPa, x1 = 0.3322	1.12 ± 0.036	0.939 ± 0.031	–
101 kPa, x1 = 0.3923	1.08 ± 0.034	0.918 ± 0.03	–
101 kPa, x1 = 0.4025	1.046 ± 0.014	0.878 ± 0.012	0.743 ± 0.01
101 kPa, x1 = 0.4477	1.051 ± 0.034	0.899 ± 0.029	–
101 kPa, x1 = 0.4978	1.032 ± 0.033	0.886 ± 0.029	–
101 kPa, x1 = 0.5004	1.01 ± 0.013	0.852 ± 0.011	0.729 ± 0.01
101 kPa, x1 = 0.5784	1.011 ± 0.033	0.871 ± 0.029	–
101 kPa, x1 = 0.5992	0.988 ± 0.013	0.838 ± 0.011	0.717 ± 0.01
101 kPa, x1 = 0.6325	1.003 ± 0.032	0.854 ± 0.028	–
101 kPa, x1 = 0.6934	0.975 ± 0.013	0.828 ± 0.011	0.709 ± 0.01
101 kPa, x1 = 0.7544	0.991 ± 0.032	0.86 ± 0.028	–
101 kPa, x1 = 0.8004	0.971 ± 0.012	0.825 ± 0.011	0.709 ± 0.01
101 kPa, x1 = 0.813	0.991 ± 0.032	0.862 ± 0.028	–
101 kPa, x1 = 0.8974	0.981 ± 0.013	0.836 ± 0.011	–
101 kPa, x1 = 0.9026	0.993 ± 0.032	0.863 ± 0.028	–
101 kPa, x1 = 0.9638	0.996 ± 0.032	0.867 ± 0.029	–
101 kPa, x2 = 0.0194	0.996 ± 0.032	0.867 ± 0.029	–
101.33 kPa, x1 = 0.0064	1.913 ± 0.015	–	–
101.33 kPa, x1 = 0.0122	1.881 ± 0.015	–	–
101.33 kPa, x1 = 0.0238	1.816 ± 0.014	–	–
101.33 kPa, x1 = 0.0358	1.756 ± 0.014	–	–
101.33 kPa, x1 = 0.0546	1.671 ± 0.013	–	–
101.33 kPa, x1 = 0.0803	1.567 ± 0.013	–	–
101.33 kPa, x1 = 0.1176	1.443 ± 0.012	–	–
101.33 kPa, x1 = 0.1632	1.333 ± 0.011	–	–
101.33 kPa, x1 = 0.2064	1.251 ± 0.01	–	–
101.33 kPa, x1 = 0.2619	1.177 ± 0.01	–	–
101.33 kPa, x1 = 0.2976	1.14 ± 0.009	–	–
101.33 kPa, x1 = 0.3254	1.119 ± 0.009	–	–
101.33 kPa, x1 = 0.3716	1.086 ± 0.009	–	–
101.33 kPa, x1 = 0.4168	1.065 ± 0.009	–	–
101.33 kPa, x1 = 0.4652	1.038 ± 0.009	–	–
101.33 kPa, x1 = 0.5109	1.024 ± 0.009	–	–
101.33 kPa, x1 = 0.5509	1.009 ± 0.008	–	–
101.33 kPa, x1 = 0.5982	0.994 ± 0.008	–	–
101.33 kPa, x1 = 0.6569	0.984 ± 0.008	–	–
101.33 kPa, x1 = 0.711	0.976 ± 0.008	–	–
101.33 kPa, x1 = 0.7757	0.975 ± 0.008	–	–
101.33 kPa, x1 = 0.819	0.976 ± 0.008	–	–
101.33 kPa, x1 = 0.8649	0.977 ± 0.008	–	–
101.33 kPa, x1 = 0.9094	0.984 ± 0.008	–	–
101.33 kPa, x1 = 0.9425	0.989 ± 0.008	–	–
101.33 kPa, x1 = 0.9722	0.988 ± 0.008	–	–
